Data reported in patent publication US20160106814A1, “Novel Oral Pharmaceutical Composition for Treatment of Diabetes” (NOVO NORDISK A/S, priority 2013, published 2016).
*1 amine or outer side, *2 acyl side, *3 side chain or, on linkers, in order; H or OH if unused. Where a SMILES comes first, the peptide text is derived from it. Side-chain parts run from the residue outwards. [ ]: non-standard residue; d: D form. The star is where a group is joined. Decanoyl(10-(4-HOOC-PhO)) = O=C(O)c1ccc(OCCCCCCCCCC(=O)*)cc1; γGlu = O=C(O)[C@H](CCC(=O)[*:2])N[*:1]; C14 diacid = O=C(O)CCCCCCCCCCCCC(=O)*; AEEA = NCCOCCOCC(=O)O; Aib = CC(C)(N)C(=O)O

Assay: Transport of GLP-1 peptide across mucus-producing E12 cell monolayers in the presence of sodium caprate and BBI
Type: in vitro ADME
Conditions: pH 7.4, apical to basolateral
Experimental: Buffer was then removed and the experiment initiated. […] Receiver samples (200 μl) were taken every 15 min.
In all samples with GLP-1 peptide and mannitol, the concentration of GLP-1 peptide was determined using a LOCI assay (or LC-MS assay) and scintillation counter, respectively.

[1] = 100 μM GLP-1 peptide + 13 mM sodium caprate + 0.2% BBI
[2] = 100 μM GLP-1 peptide + 13 mM sodium caprate, without BBI

Compound | Papp A→B [1] [nm/s] | Papp A→B [2] [nm/s]
CC[C@H](C)[C@H](NC(=O)[C@H](Cc1ccccc1)NC(=O)[C@H](CCC(=O)O)NC(=O)[C@H](CCCCNC(=O)COCCOCCNC(=O)COCCOCCNC(=O)CC[C@H](NC(=O)CCCCCCCCCCCCCCCCC(=O)O)C(=O)O)NC(=O)[C@H](C)NC(=O)[C@H](C)NC(=O)[C@H](CCC(N)=O)NC(=O)CNC(=O)[C@H](CCC(=O)O)NC(=O)[C@H](CC(C)C)NC(=O)[C@H](Cc1ccc(O)cc1)NC(=O)[C@H](CO)NC(=O)[C@H](CO)NC(=O)[C@@H](NC(=O)[C@H](CC(=O)O)NC(=O)[C@H](CO)NC(=O)[C@@H](NC(=O)[C@H](Cc1ccccc1)NC(=O)[C@@H](NC(=O)CNC(=O)[C@H](CCC(=O)O)NC(=O)C(C)(C)NC(=O)[C@@H](N)Cc1c[nH]cn1)[C@@H](C)O)[C@@H](C)O)C(C)C)C(=O)N[C@@H](C)C(=O)N[C@@H](Cc1c[nH]cn1)C(=O)N[C@@H](CC(C)C)C(=O)N[C@H](C(=O)N[C@@H](CCC(N)=O)C(=O)NCC(=O)N[C@@H](CCCNC(=N)N)C(=O)NCC(=O)O)C(C)C [GLP-1 peptide 8, N{Epsilon-26}-[2-[2-[2-[[2-[2-[2-[[(4S)-4-carboxy-4-(17-carboxy-heptadecanoylamino)butanoyl]amino]ethoxy]ethoxy]acetyl]amino]ethoxy]ethoxy]acetyl]-[Aib8,His31,Gln34]-GLP-1-(7-37)-peptide] | 3.63 | 1.84
CC[C@H](C)[C@H](NC(=O)[C@H](Cc1ccccc1)NC(=O)[C@H](CCC(=O)O)NC(=O)[C@H](CCCCNC(=O)COCCOCCNC(=O)COCCOCCNC(=O)CC[C@H](NC(=O)CCCCCCCCCCCCC(=O)O)C(=O)O)NC(=O)[C@H](C)NC(=O)[C@H](C)NC(=O)[C@H](CCC(N)=O)NC(=O)[C@H](CCC(=O)O)NC(=O)[C@H](CCC(=O)O)NC(=O)[C@H](CC(C)C)NC(=O)[C@H](Cc1ccc(O)cc1)NC(=O)[C@H](CCCCNC(=O)COCCOCCNC(=O)COCCOCCNC(=O)CC[C@H](NC(=O)CCCCCCCCCCCCC(=O)O)C(=O)O)NC(=O)[C@H](CO)NC(=O)[C@@H](NC(=O)[C@H](CC(=O)O)NC(=O)[C@H](CO)NC(=O)[C@@H](NC(=O)[C@H](Cc1ccccc1)NC(=O)[C@@H](NC(=O)CNC(=O)[C@H](CCC(=O)O)NC(=O)C(C)(C)NC(=O)[C@@H](N)Cc1c[nH]cn1)[C@@H](C)O)[C@@H](C)O)C(C)C)C(=O)N[C@@H](C)C(=O)N[C@@H](Cc1c[nH]c2ccccc12)C(=O)N[C@@H](CC(C)C)C(=O)N[C@H](C(=O)N[C@@H](CCCNC(=N)N)C(=O)NCC(=O)N[C@@H](CCCNC(=N)N)C(=O)NCC(=O)O)C(C)C [GLP-1 peptide 5, N{Epsilon-18}-[2-[2-[2-[[2-[2-[2-[[(4S)-4-carboxy-4-(13-carboxytridecanoylamino)butanoyl]amino]ethoxy]ethoxy]acetyl]amino]ethoxy]ethoxy]acetyl], —N{Epsilon-26}-[2-[2-[2-[[2-[2-[2-[[(4S)-4-carboxy-4-(13-carboxytridecanoylamino)butanoyl]-amino]ethoxy]ethoxy]acetyl]amino]ethoxy]ethoxy]acetyl]-[Aib8,Lys18,Glu22,Arg34]-GLP-1-(7-37)-peptide] (H-H[Aib]EGTFTSDVSK([AEEA-AEEA-γGlu-C14 diacid])YLEEQAAK([AEEA-AEEA-γGlu-C14 diacid])EFIAWLVRGRG-OH) | 5.92 | 3.14
CC[C@H](C)[C@H](NC(=O)[C@H](Cc1ccccc1)NC(=O)[C@H](CCC(=O)O)NC(=O)[C@H](CCCCNC(=O)COCCOCCNC(=O)COCCOCCNC(=O)CC[C@H](NC(=O)CCCCCCCCCOc1ccc(C(=O)O)cc1)C(=O)O)NC(=O)[C@H](C)NC(=O)[C@H](C)NC(=O)[C@H](CCC(N)=O)NC(=O)CNC(=O)[C@H](CCC(=O)O)NC(=O)[C@H](CC(C)C)NC(=O)[C@H](Cc1ccc(O)cc1)NC(=O)[C@H](CO)NC(=O)[C@H](CO)NC(=O)[C@@H](NC(=O)[C@H](CC(=O)O)NC(=O)[C@H](CO)NC(=O)[C@@H](NC(=O)[C@H](Cc1ccccc1)NC(=O)[C@@H](NC(=O)CNC(=O)[C@H](CCC(=O)O)NC(=O)C(C)(C)NC(=O)[C@@H](N)Cc1c[nH]cn1)[C@@H](C)O)[C@@H](C)O)C(C)C)C(=O)N[C@@H](C)C(=O)N[C@@H](Cc1c[nH]c2ccccc12)C(=O)N[C@@H](CC(C)C)C(=O)N[C@H](C(=O)N[C@@H](CCCNC(=N)N)C(=O)NCC(=O)N[C@@H](CCCNC(=N)N)C(=O)N[C@@H](CCCCNC(=O)COCCOCCNC(=O)COCCOCCNC(=O)CC[C@H](NC(=O)CCCCCCCCCOc1ccc(C(=O)O)cc1)C(=O)O)C(=O)O)C(C)C [GLP-1 peptide 9, N{Epsilon-26}-[2-[2-[2-[[2-[2-[2-[[(4S)-4-carboxy-4-[10-(4-carboxyphenoxy)-decanoylamino]butanoyl]amino]ethoxy]ethoxy]acetyl]amino]ethoxy]ethoxy]acetyl], N{Epsilon-37}-[2-[2-[2-[[2-[2-[2-[[(4S)-4-carboxy-4-[10-(4-carboxyphenoxy)decanoylamino]butanoyl]-amino]ethoxy]ethoxy]acetyl]amino]ethoxy]ethoxy]acetyl]-[Aib8,Arg34, Lys37]-GLP-1-(7-37)-peptide] | 3.79 | 2.72
CC[C@H](C)[C@H](NC(=O)[C@H](Cc1ccccc1)NC(=O)[C@H](CCC(=O)O)NC(=O)[C@H](CCCCNC(=O)COCCOCCNC(=O)COCCOCCNC(=O)CC[C@H](NC(=O)CCCCCCCCCOc1ccc(C(=O)O)cc1)C(=O)O)NC(=O)[C@H](C)NC(=O)[C@H](C)NC(=O)[C@H](CCC(N)=O)NC(=O)CNC(=O)[C@H](CCC(=O)O)NC(=O)[C@H](CC(C)C)NC(=O)[C@H](Cc1ccc(O)cc1)NC(=O)[C@H](CCCCNC(=O)COCCOCCNC(=O)COCCOCCNC(=O)CC[C@H](NC(=O)CCCCCCCCCOc1ccc(C(=O)O)cc1)C(=O)O)NC(=O)[C@H](CO)NC(=O)[C@@H](NC(=O)[C@H](CC(=O)O)NC(=O)[C@H](CO)NC(=O)[C@@H](NC(=O)[C@H](Cc1ccccc1)NC(=O)[C@@H](NC(=O)CNC(=O)[C@H](CCC(=O)O)NC(=O)C(C)(C)NC(=O)[C@@H](N)Cc1c[nH]cn1)[C@@H](C)O)[C@@H](C)O)C(C)C)C(=O)N[C@@H](C)C(=O)N[C@@H](Cc1c[nH]c2ccccc12)C(=O)N[C@@H](CC(C)C)C(=O)N[C@H](C(=O)N[C@@H](CCC(N)=O)C(=O)NCC(=O)N[C@@H](CCCNC(=N)N)C(=O)NCC(=O)O)C(C)C [GLP-1 peptide 6, N{Epsilon-18}-[2-[2-[2-[[2-[2-[2-[[(4S)-4-carboxy-4-[10-(4-carboxyphenoxy)-decanoylamino]butanoyl]amino]ethoxy]ethoxy]acetyl]amino]ethoxy]ethoxy]acetyl], N{Epsilon-26}-[2-[2-[2-[[2-[2-[2-[[(4S)-4-carboxy-4-[10-(4-carboxyphenoxy)decanoylamino]butanoyl]-amino]ethoxy]ethoxy]acetyl]amino]ethoxy]ethoxy]acetyl]-[Aib8,Lys18,Gln34]-GLP-1-(7-37)-peptide] | 2.96 | 1.59
CC[C@H](C)[C@H](NC(=O)[C@H](Cc1ccccc1)NC(=O)[C@H](CCC(=O)O)NC(=O)[C@H](CCCCNC(=O)COCCOCCNC(=O)COCCOCCNC(=O)CC[C@H](NC(=O)CCCCCCCCCOc1ccc(C(=O)O)cc1)C(=O)O)NC(=O)[C@H](C)NC(=O)[C@H](C)NC(=O)[C@H](CCC(N)=O)NC(=O)[C@H](CCC(=O)O)NC(=O)[C@H](CCC(=O)O)NC(=O)[C@H](CC(C)C)NC(=O)[C@H](Cc1ccc(O)cc1)NC(=O)[C@H](CCCCNC(=O)COCCOCCNC(=O)COCCOCCNC(=O)CC[C@H](NC(=O)CCCCCCCCCOc1ccc(C(=O)O)cc1)C(=O)O)NC(=O)[C@H](CO)NC(=O)[C@@H](NC(=O)[C@H](CC(=O)O)NC(=O)[C@H](CO)NC(=O)[C@@H](NC(=O)[C@H](Cc1ccccc1)NC(=O)[C@@H](NC(=O)CNC(=O)[C@H](CCC(=O)O)NC(=O)C(C)(C)NC(=O)[C@@H](N)Cc1c[nH]cn1)[C@@H](C)O)[C@@H](C)O)C(C)C)C(=O)N[C@@H](C)C(=O)N[C@@H](Cc1c[nH]c2ccccc12)C(=O)N[C@@H](CC(C)C)C(=O)N[C@H](C(=O)N[C@@H](CCCNC(=N)N)C(=O)NCC(=O)N[C@@H](CCCNC(=N)N)C(=O)NCC(=O)O)C(C)C [GLP-1 peptide 4, N{Epsilon-18}-[2-[2-[2-[[2-[2-[2-[[(4S)-4-carboxy-4-[10-(4-carboxyphenoxy)-decanoylamino]butanoyl]amino]ethoxy]ethoxy]acetyl]amino]ethoxy]ethoxy]acetyl], N{Epsilon-26}-[2-[2-[2-[[2-[2-[2-[[(4S)-4-carboxy-4-[10-(4-carboxyphenoxy)decanoylamino]butanoyl]-amino]ethoxy]ethoxy]acetyl]amino]ethoxy]ethoxy]acetyl]-[Aib8,Lys18,Glu22,Arg34]-GLP-1-(7-37)-peptide] (H-H[Aib]EGTFTSDVSK([AEEA-AEEA-γGlu-Decanoyl(10-(4-HOOC-PhO))])YLEEQAAK([AEEA-AEEA-γGlu-Decanoyl(10-(4-HOOC-PhO))])EFIAWLVRGRG-OH) | 5.29 | 2.04
